# According to US9493444B2 (Merck Patent GmbH, priority 2012, dated 2016):
# Tested on: Wnt pathway (TCF-dependent transcription in HEK293 luciferase reporter cell line with ER-DSH construct)
# Test: Cellular assay for Wnt pathway activity (luciferase reporter)
# Format: cell-based
# Conditions: Homo sapiens; Wnt pathway inhibition, HEK293 luciferase reporter cells (ER-DSH, TCF promoter), 24 hours incubation, estrogen-induced
# Description: 1. Cellular Assay for Wnt Pathway Activity
# Compounds were tested for their Wnt pathway inhibitory activities using a luciferase reporter cell based assay. A HEK293 luciferase reporter cell line was used which contained an Estrogen Receptor-Dishevelled (ER-DSH) construct and a T-Cell Factor (TCF) dependent gene promoter luciferase construct.
# Compounds, in concentrations from 30 μM down to 1 nM, were incubated for 24 hours on the cells, which were induced for TCF-dependent transcription by the addition of estrogen (10). Luciferase activities were determined using the ONE GLO Luciferase Assay System (Promega) and the ENVISION microplate reader (Perkin Elmer). For analysis, the obtained data were normalized against the untreated vehicle control and fitted for determination of the IC50 values using the Assay Explorer software (Accelrys).
row,Structure (SMILES),IC50 [nM]
1,"CC(=O)N(C)CCN(C)c1cncc(Oc2ccc(-c3cccc(S(C)(=O)=O)n3)cc2)n1 [Compound 206, N-[2-({6-[4-(6-Methane-sulfonyl-pyridin-2-yl)-phenoxy]-pyrazin-2-yl}-methyl-amino)-ethyl]-N-methyl-acetamide]",< 200
2,"CC(=O)N(C)CCN(C)c1cncc(Oc2ccc(-c3ccc(CO)nc3)cc2)n1 [Compound 8, N-[2-({6-[4-(6-Hydroxymethyl-pyridin-3-yl)-phenoxy]-pyrazin-2-yl}-methyl-amino)-ethyl]-N-methyl-acetamide]",< 200
3,"CC(=O)N(C)CCCc1cncc(Oc2ccc(-c3ccc(N4CCOCC4)nc3)cc2)n1 [Compound 216, N-Methyl-N-(3-{6-[4-(6-morpholin-4-yl-pyridin-3-yl)-phenoxy]-pyrazin-2-yl}-propyl)-acetamide]",200 to 1000
4,"CC(=O)N(C)CCNc1cncc(Oc2ccc(-c3cccc(N4CCN(C)CC4)n3)cc2)n1 [Compound 234, N-Methyl-N-[2-(6-{4-[6-(4-methyl-piperazin-1-yl)-pyridin-2-yl]-phenoxy}-pyrazin-2-ylamino)-ethyl]-acetamide]",< 200
5,"COc1ccc(-c2ccc(Oc3cncc(CCCN(C)C(C)=O)n3)cc2)nc1 [Compound 221, N-(3-{6-[4-(5-Methoxy-pyridin-2-yl)-phenoxy]-pyrazin-2-yl}-propyl)-N-methyl-acetamide]",200 to 1000
6,"COc1ccc(Oc2cncc(N(C)CCN(C)C(C)=O)n2)cc1 [Compound 30, N-(2-{[6-(4-Methoxy-phenoxy)-pyrazin-2-yl]-methyl-amino}-ethyl)-N-methyl-acetamide]",200 to 1000
7,"CNCc1ccc(-c2ccc(Oc3cncc(N(C)CCN(C)C(C)=O)n3)cc2)cn1 [Compound 265, N-Methyl-N-[2-(methyl-{6-[4-(6-methylaminomethyl-pyridin-3-yl)-phenoxy]-pyrazin-2-yl}-amino)-ethyl]-acetamide]",< 200
8,"CC(=O)N(C)CCN(C)c1cncc(Oc2ccc(-c3ccc(C#N)nc3)cc2)n1 [Compound 211, N-[2-({6-[4-(6-Cyano-pyridin-3-yl)-phenoxy]-pyrazin-2-yl}-methyl-amino)-ethyl]-N-methyl-acetamide]",< 200
9,"CC(=O)N(C)CCCc1cnc(N)c(Oc2ccc(F)cc2)c1 [Compound 306, N-{3-[6-Amino-5-(4-fluoro-phenoxy)-pyridin-3-yl]-propyl}-N-methyl-acetamide]",1000 to 10000
10,"CC(=O)N(C)CCN(C)c1cncc(Oc2ccc(C3CCC(C)CO3)cc2)n1 (stereo not shown) [Compound 179, N-Methyl-N-[2-(methyl-{6-[4-(5-methyl-tetrahydro-pyran-2-yl)-phenoxy]-pyrazin-2-yl}-amino)-ethyl]-acetamide]",< 200
11,"CC(=O)N(C)CCN(C)c1cncc(Oc2ccc(-c3cc(C#N)ccn3)cc2)n1 [Compound 199, N-[2-({6-[4-(4-Cyano-pyridin-2-yl)-phenoxy]-pyrazin-2-yl}-methyl-amino)-ethyl]-N-methyl-acetamide]",< 200
12,"CC(=O)N(C)CCN(C)c1cncc(Oc2ccc(C(N)=O)cc2)n1 [Compound 143, 4-(6-{[2-(Acetyl-methyl-amino)-ethyl]-methyl-amino}-pyrazin-2-yloxy)-benzamide]",200 to 1000
13,"CC(=O)N(C)CCCc1cncc(Oc2ccc(-c3ccc(N4CCOCC4)nc3)cc2F)n1 [Compound 267, N-(3-{6-[2-Fluoro-4-(6-morpholin-4-yl-pyridin-3-yl)-phenoxy]-pyrazin-2-yl}-propyl)-N-methyl-acetamide]",200 to 1000
14,"CC(=O)N(C)CCN(C)c1cncc(Oc2ccc(-c3ccnc(F)c3)cc2)n1 [Compound 210, N-[2-({6-[4-(2-Fluoro-pyridin-4-yl)-phenoxy]-pyrazin-2-yl}-methyl-amino)-ethyl]-N-methyl-acetamide]",< 200
15,"CC(=O)N(C)CCN(C)c1cncc(Oc2ccc(-c3cncc(C)c3)cc2)n1 [Compound 212, N-Methyl-N-[2-(methyl-{6-[4-(5-methyl-pyridin-3-yl)-phenoxy]-pyrazin-2-yl}-amino)-ethyl]-acetamide]",200 to 1000
16,"CC(=O)N(C)CCCc1cncc(Oc2ccc(-c3ccncc3C#N)cc2)n1 [Compound 213, N-(3-{6-[4-(3-Cyano-pyridin-4-yl)-phenoxy]-pyrazin-2-yl}-propyl)-N-methyl-acetamide]",200 to 1000
17,"CC(=O)N(C)CCN(C)c1cncc(Oc2ccc(-c3ccnc(N)n3)cc2)n1 [Compound 202, N-[2-({6-[4-(2-Amino-pyrimidin-4-yl)-phenoxy]-pyrazin-2-yl}-methyl-amino)-ethyl]-N-methyl-acetamide]",< 200
18,"CNC(=O)CCN(C)c1cncc(Oc2ccc(-c3ccc(C)cn3)cc2)n1 [Compound 247, N-Methyl-3-(methyl-{6-[4-(5-methyl-pyridin-2-yl)-phenoxy]-pyrazin-2-yl}-amino)-propionamide]",< 200
19,"CC(=O)N(C)CCN(C)c1cncc(Oc2ccc3cccnc3c2)n1 [Compound 55, N-Methyl-N-(2-{methyl-[6-(quinolin-7-yloxy)-pyrazin-2-yl]-amino}-ethyl)-acetamide]",1000 to 10000
20,"NC(=O)CCNc1cncc(Oc2ccc(-c3ccc(CO)nc3)cc2)n1 [Compound 299, 3-{6-[4-(6-Hydroxy-methyl-pyridin-3-yl)-phenoxy]-pyrazin-2-ylamino}-propionamide]",1000 to 10000
21,"CCOC(=O)c1ncoc1-c1ccc(Oc2cncc(N(C)CCN(C)C(C)=O)n2)cc1 [Compound 187, 5-[4-(6-{[2-(Acetyl-methyl-amino)-ethyl]-methyl-amino}-pyrazin-2-yloxy)-phenyl]-oxazole-4-carboxylic acid ethyl ester]",200 to 1000
22,"CC(=O)N(C)CCN(C)c1cncc(Oc2ccc(-c3ccncc3C#N)cc2)n1 [Compound 144, N-[2-({6-[4-(3-Cyano-pyridin-4-yl)-phenoxy]-pyrazin-2-yl}-methyl-amino)-ethyl]-N-methyl-acetamide]",< 200
23,CC(=O)N(C)CCN(C)c1cncc(Oc2ccc(C(=O)c3ccccc3)cc2)n1 [Compound 147],200 to 1000
24,"CSc1cccc(Oc2cncc(N(C)CCN(C)C(=O)CF)n2)c1 [Compound 76, 2-Fluoro-N-methyl-N-(2-{methyl-[6-(3-methyl-sulfanyl-phenoxy)-pyrazin-2-yl]-amino}-ethyl)-acetamide]",200 to 1000
25,"CC(=O)N(C)CCN(C)c1cncc(Oc2ccc(N3CCNCC3)cc2)n1 [Compound 149, N-Methyl-N-(2-{methyl-[6-(4-piperazin-1-yl-phenoxy)-pyrazin-2-yl]-amino}-ethyl)-acetamide]",1000 to 10000
26,"CC(=O)N(C)CCCc1cncc(Oc2ccc(-c3ccc(N4CCOCC4)nc3)cc2)c1 [Compound 318, N-Methyl-N-(3-{5-[4-(6-morpholin-4-yl-pyridin-3-yl)-phenoxy]-pyridin-3-yl}-propyl)-acetamide]",200 to 1000
27,"CC(=O)N(C)CCN(C)c1cncc(Oc2ccc(OC(F)(F)F)cc2)n1 [Compound 131, N-Methyl-N-(2-{methyl-[6-(4-trifluoro-methoxy)-pyrazin-2-yl]-amino}-ethyl)-acetamide]",< 200
28,"CCc1ccc(Oc2cncc(N(C)CCN(C)C(C)=O)n2)cc1 [Compound 97, N-(2-{[6-(4-Ethyl-phenoxy)-pyrazin-2-yl]-methyl-amino}-ethyl)-N-methyl-acetamide]",< 200
